Source: patent publication US9192595B2, “Compounds with a skin pigmenting activity and pharmaceutical or cosmetic compositions containing them” (priority 2010, dated 2015)

Legend:
Normal human scalp skin = experiment: Epidermal pigmentation in full-thickness skin organ culture (quantitative Masson-Fontana staining); type: cell-based
Protocol: This experimental study on the active ingredient octatrienoic acid according to the invention was based on organ cultures of skin biopsies, which were tested in 4 groups (3 skin biopsies/well) and incubated with different concentrations of the active ingredient for 6 days.
Normal human scalp skin was obtained from a person undergoing routine face-lift surgery, subject to their informed consent. All experiments were performed in accordance with the Declaration of Helsinki, with the approval of an ad hoc Ethical Committee.
Biopsies 3-4 mm in size were cultured at 37° C. for 6 days in Williams' E medium (Biochrom, Cambridge, U.K.) supplemented with 100 IU mL^−1 penicillin, 10 μg mL^−1 streptomycin (Gibco, Karlsruhe, Germany), 10 μg mL^−1 insulin (Sigma, Taufkirchen, Germany), 10 ng mL^−1 hydrocortisone (Sigma) and 2 mmol L^−1 L-glutamine (Invitrogen, Paisley, UK).
Three different concentrations of octatrienoic acid (0.1 μg/mL, 0.25 μg/mL, 0.5 μg/mL) or the reference medium were administered once, at each change of medium (i.e. every 48 hours).
For histochemical melanin assessment, Masson-Fontana staining was applied to frozen adult human scalp skin sections. Melanin stained as brown spots and the degree of pigmentation was evaluated using the quantitative Masson-Fontana test, as described elsewhere (Ito et al., 2005). This method gives a sensitive and reliable indication of changes in melanin synthesis, as shown by standard tyrosinase expression and enzyme activity assays. (Kauser et al., 2006)
Staining intensity was analysed in a previously-defined reference area of the epidermis using ImageJ software (National Institute of Health).
The statistical analysis was performed using Student's two-tailed t-test for independent samples.

tyrosinase mRNA = experiment: Tyrosinase mRNA expression by real-time RT-PCR in primary melanocyte cultures; type: cell-based, human; conditions: 24 h incubation; 40 and 55 μm; NHM LP and NHM HP; vs. Ctr; FIG. 3
Source text: (§1) A second experimental study assessed the action of the compounds according to the invention on the phenomena of melanocyte differentiation in the melanogenic process, as described below with reference to the attached drawings in FIGS. 3, 4 and 5. For this purpose, octatrienoic acid (called Octa in the diagrams, for the sake of brevity) was used on foreskin primary melanocyte cultures with varying degrees of basal pigmentation to assess the following parameters: • a) mRNA and tyrosinase protein expression, using real-time RT-PCR and Western-blot methods; • b) enzymatic activity of tyrosinase by spectrophotometry; • c) Quantification of melanin genesis by spectrophotometry.
Tyrosinase mRNA expression was assessed by real-time RT-PCR on mRNA specimens extracted from cells after 24 h of incubation with octatrienoic acid at concentrations of 40 and 55 μm.
Forskoline (FSK), a known adenylate cyclase activator capable of promoting melanin synthesis, was used as a control for comparison with the activity of octatrienoic acid.
For these columns, *=p<0.01 vs. Ctr, **=p<0.001 vs. Ctr, and $=p<0.05 vs. Ctr.

tyrosinase protein = experiment: Western blot analysis of tyrosinase protein expression in primary melanocyte cultures; type: cell-based, human; conditions: 72 h; same doses (40 and 55); Western blot on protein extracts
Source text: as §1

tyrosinase = experiment: Tyrosinase enzymatic activity by spectrophotometry on melanocyte cell lysates; type: cell-based, human; conditions: 72 h; 40 and 55 μM; NHM LP and NHM HP; p<0.05 vs. Ctr; FIG. 4
Source text: as §1
The activity of tyrosinase was evaluated by spectrophotometry on cell lysates derived from specimens incubated for 72 h with octatrienoic acid at concentrations of 40 and 55 μM, vs. control culture.
For these columns, *=p<0.05 vs. Ctr.

[1] = system: foreskin primary melanocyte cultures; experiment: Intracellular melanin content by spectrophotometry in melanocyte cell lysates; type: cell-based, human; conditions: 72 h; 40 and 55 μM; NHM LP and NHM HP; vs. Ctr; FIG. 5
Source text: as §1
In FIG. 5, *=p<0.05 vs. Ctr, **=p<0.01 vs. Ctr, $=p<0.001 vs. ctr.

For `C/C=C/C=C/C=C/C(=O)O` [octatrienoic acid], the “intensity of Masson-Fontana staining” value (Normal human scalp skin; day 6, each dose (0.1, 0.25, 0.5 μg/mL) by comparison with the medium alone, FIG. 1) was “marked increase”, the “pigmentation in the basal layer of the epidermis” value (Normal human scalp skin; day 6, each dose administered, microphotographs x200, FIG. 2) was “increased pigmentation” and the skin pigmentation (Normal human scalp skin; skin culture, all three doses tested (0.1, 0.25, 0.5 μg/mL), 6 days) was “increased the skin pigmentation”. The “tyrosinase mRNA expression (Rel tyr mRNA expression, fold change)” value (tyrosinase mRNA) was “significant induction”, the “melanogenic enzyme (tyrosinase) protein expression” value (tyrosinase protein) was “induced melanogenic enzyme protein expression” and the “tyrosinase enzymatic activity, % of the Ctr” value (tyrosinase) was “significant increase”. For the same compound, the “quantity of intracellular melanins” value [1] was “significant induction”.
